We go through three compounds from patent publication US10857180B2, “Pharmaceutical composition for improving health, cure abnormalities and degenerative disease, achieve anti-aging effect of therapy and therapeutic effect on mammals and method thereof” (priority 2014, dated 2020).

The test system of test [1] is renal cell carcinoma (PA) cells. Briefly: Transformation of PA tumor cells into type A/B cells (trypan blue). In kind it is cell-based, rat. As to conditions: for concentration of cells of type A at first calculation: 10 hours after start, both concentration models; for time for 80% of the transformation into phenotype A: total time 140 hours. The source says: Staining of Cell Suspension with Trypan Blue and Visual Control of Changes in the Shape, Color and Size of the Cells will now be discussed. The visual control method was based on the observation of state of the plasma membrane permeability after the action of materials under study, and reflects the degree of membrane's damage, making it possible to estimate an ability of nuclear proteins to absorb the dye.
To make the analysis, the cell suspension, after it was exposed to the action of materials, in a volume of 20 mcl was mixed with 20 mcl of trypan blue solution and resuspended. The obtained solution was placed in a hemocytometer chamber for visual analysis and quantitative estimation of the cells. To make the quantitative estimation of the cells, they were separated from the substrate using Versene solution and counted by staining cells with trypan. A change in the color of a cell was indicative of the violation of intactness of the cell membrane, and the more pronounced was the coloration, the less viable the cell was. […] They are easily distinguishable from dark damaged cells and easily identified with ordinary light microscope.
Primary cell culture for our in vitro experiments was obtained by enzymatic treatment of tumor material (using trypsin solution) from a strain of renal cell carcinoma (PA) in a rat Visually (after its removal from the animal), the tumor looked as a nodular fleshy growth of a whitish-pink color of rather dense consistency, marginated from other tissues by a joint capsule. The main morphological signs of PA tumor in the animal can be described as follows. Small (1.5 to 2 grams) fragments without vessels and blastic lesions were excised aseptically from the surgically removed tumor and then cut them with scissors to smaller pieces of 0.2 to 0.3 mm in size and cultured in a solution of trypsin. The culture medium contained the following components: RPMI-1640 (Sigma, USA) as the base plus 10% newborn calf serum and 40 mcg/ml of gentamicin. Trypsinization was performed in a humidified atmosphere of 5% CO2 at 37° C. with constant mixing of the contents in a magnetic stirrer. The isolated cells were washed three times in a culture medium by centrifuging and before starting the experiment a quantitative assessment of cells was carried out in the Goryaev chamber with supravital staining of the cells with trypan blue.
Analysis of the effect of all components on the renal cell carcinoma (PA) was conducted to determine the relationship between the amount of the preparation (concentration characteristics of the component) and the quantitative characteristics of the cells. Assessment of the effect of the components was carried out on 2 concentration models with 30 and 300 thousand original tumor cells. After the cells were cultured, cell suspensions were prepared in the plates with the culture medium and an effect of the preparations (in various concentrations) on the tumor cells was assessed. The experiment was started with the concentration of 10 mg of the active substance per 1 ml of the solvent (saline with 5% glucose).
The amount of culture medium in each well was 200 mcl for 30 thousand cells and 2 ml for 300 thousand cells, respectively. The amounts of drugs (active substances) for 2 concentration models differed according to the amount of cells and culture medium, i.e., the amount of drug in the experiment with 300 thousand cells was ten times as large as compared with the same in the experiment with 30 thousand cells. The result of effects of the components is shown in FIGS. 22, 23 for light isotope components and in FIG. 25 for the elements with natural distribution of isotopes. Assessment of the effect of the components was performed by comparing the external factors of cells (color, size, shape) prior to the experiment and after staining. […]

In test [2] the test system is human colon adenocarcinoma (COLO 205 line) cells. Briefly: Immunocytochemistry (H-Score) of COLO 205 cells. In kind it is cell-based. As to the method: (§1) When making the immunocytochemistry (ICC) assay, cells on microscope glasses (cytospin preparations) were fixed in the solution (methanol+acetone 1:1) for 2 hours at t 20° C. and incubated with 1% solution of bovine serum albumin (BSA) for 20 minutes. Then the monoclonal antibodies-CD44 (Diagnostic BioSystems), E-cadherin (ThermoScientific), N-cadherin (NeoMarker, BioLegend), SLUG (GeneTex)—were applied for the time period specified by the manufacturer (30 to 60 minutes), after which the Poly Vue imaging system conjugated with peroxidase was used and the enzyme activity was detected using diaminobenzidine (ThermoScientific) as a substrate. After the immunocytochemical reaction the preparations were washed with water and counterstained with hematoxylin-eosin (for 15 to 30 seconds).
(§2) The results were analyzed by counting cells with expression (brown colored cells) using a light microscope, and were assessed using the classical H-Score method: S=1×A+2×B+3×C, where S is the H-Score index giving a range of 0 (protein is not detected) to 300 (high-level expression in 100% of the cells); A is the percentage of weakly staining cells, B is the percentage of moderately staining cells and C is the percentage of strongly staining cells.

For test [3], the system named is human breast cancer (MCF-7 line) cells. Briefly: Immunocytochemistry (H-Score) of MCF-7 cells. In kind it is cell-based. As to the method:
as §1, §2

A further test deals with COLO 205 cell line. In words: Cytogenetic analysis (micronucleus test) of COLO 205 cells. The class given is cell-based, human. Conditions: ^39K 2 mg/ml, ^64Zn 20 mcg/ml, ^24Mg 4 mg/ml. The procedure: Advanced Micronucleus Test was used to assess the cytogenetic characteristics of cells after their exposure to the action of the test group of components.
Cytogenetic analysis was carried out after 48 hours of exposure of the cells to the action of the components. For cytogenetic analysis, the cells were incubated in hypotonic solution KCl (0.54%) (Reahim, Ukraine) for 40 minutes at +37° C. Then they were fixed with a mixture of methyl alcohol (Reahim, Ukraine) and acetic acid (Himlaborreaktiv, Ukraine) (3:1) with replacing the fixative three times. All fixed cell suspensions were applied on cold wet glasses, dried and stained with Giemsa stain (Sigma, Germany). The cytogenetic preparations were analyzed using a binocular microscope Sari Zeiss, AxioStarPlus (Germany) with magnification of x 1000. The following quantitative characteristics and stages of cell division were analyzed on the preparations: mitoses, cells with premature chromosome condensation (PCC), cells with micronuclei (CMN), apoptotic cells and cells with nuclear protrusions (protrusions) which were calculated for 1000 cells and expressed in per mille (%).

The subject of a further test is A-549 cell line. In words: Scratch assay, A-549 cells. As to conditions: for time of restoration of the cell monolayer: dose not stated, 24 hours in the control; for restoration of the cell monolayer after 72 hours: ^64Zn 20 and 30 mcg/ml, ^39K 2 mg/ml, control restored after 24 hours.

Where only a bound is given, the exact number is not on record here.

Procedure for A-549 cell line: The cells of A-549, A-431, NRK, HaCaT, MM-4, normal fibroblasts (derived from the Bank of Cell Lines from human and animal tissues, R. E. Kavetsky Institute of Experimental Pathology, Oncology and Radiobiology, National Academy of Sciences of Ukraine) were cultured in complete culture medium RPMI 1640/DMEM (PAA, Austria) (depending on the cell type) supplemented with 10% fetal calf serum (PAA, Austria) and incubated in 5% CO2 humidified atmosphere at 37° C. The culture medium was replaced in 2 to 3 days and the cells were passaged in 4 to 5 days.
Analysis of the influence of the components under study on the cell migration rate was performed using the scratch assay method. Cells (5×10^4/well) were seeded into the wells of a 12-well plate in 2 repeats in RPMI-1640/DMEM culture medium supplemented with 10% PBS, 40 mcg/ml of gentamicin and incubated in 5% CO2 humidified atmosphere at 37° C. for 24 hours.
The plate was incubated in a CO2 incubator for additional 48 hours. After the cells formed a dense monolayer it was damaged (by making a “scratch”) and the growth medium was replaced to remove cell debris and smooth the edges of the “scratch.” The rate of cell migration was analyzed using an inverted microscope and by photographing cells in the area of injury. The migration activity of cells was fixed at several time points (depending on the cell line analyzed). The microphotomicrographs were analyzed and the cell incubation time needed to restore the monolayer was determined for all experimental groups.

Turning to `O=S(=O)([O-])[O-].[24Mg+2]` [^24Mg], in test [1], the “concentration of cells of type A at first calculation” value is 100%, the “changes (cell transformation) in the first 10 hours” value (“changes (cell transformation)” for short) was found to be 62% and the “time for 80% of the transformation into phenotype A” value is not above 45 h. Also, in test [1] (^24Mg 0.4 mg/ml), the “cells of type A” value is “about 5%”. In test [1] (^24Mg 2 mg/ml), the “cells of type A” value was determined as 25% and the “cells of type B” value came out at 75%. Further, the “cells of type A” value in test [1] (^24Mg 10 mg/ml) turned out to be 100%. Moreover, in test [2], the “number of E-cadherin-positive cells” value was “increasing the number”; the “slug transcription factor expression” value is “in the cytoplasm and in the nucleus”. Also, the “number of Slug-positive cells” value in test [3] is on record as “insignificantly influenced”. The “tumor proliferation (cell division) at the stage of G2/M” value (from here on “tumor proliferation (cell division)”) in the test with COLO 205 cell line is “inhibition of tumor proliferation”. For the same compound, in the test with A-549 cell line, the “time of restoration of the cell monolayer” value (from here on “time … of the cell monolayer”) came to 72 h.

For `[39K+].[Cl-]` [^39K], in test [1], the “time of transformation of 100% initial tumor cells into phenotype A” value came to 80 h, the “concentration of cells of type A at first calculation” value is 100%, the “changes (cell transformation)” value came out at 40% and the “time for 80% of the transformation into phenotype A” value was not above 20 h. Moreover, the A cells result in test [1] (^39K 2 mg/ml) is given as “About 50%”. Further, the “cells of type A” value in test [1] (^39K 10 mg/ml) came out at 100%. In test [2], the “number of E-cadherin-positive cells” value is recorded as “significantly increased” and the “slug transcription factor expression” value is “increased its expression in the cytoplasm”. For the same compound, the “E-cadherin, H-Score scale” value in test [2] (87 in the control) came out at 184. For the same compound, in test [3], the “number of Slug-positive cells” value is “insignificantly influenced”. For the same compound, in the test with COLO 205 cell line, the “tumor proliferation (cell division)” value is “inhibition of tumor proliferation”. For the same compound, in the test with A-549 cell line, the “restoration of the cell monolayer after 72 hours” value was “incomplete” and the “time … of the cell monolayer” value was 72 h.

Consider `O=S(=O)([O-])[O-].[64Zn+2]` [^64Zn], for which, in test [1], the “time of transformation of 100% initial tumor cells into phenotype A” value was not above 50 h, the “changes (cell transformation)” value is reported as 80% and the “time for 80% of the transformation into phenotype A” value was not above 10 h. In addition, in test [1] (^64Zn 0.08 mg/ml), the A cells was determined as 100%. Besides, in test [1] (^64Zn 0.128 mg/ml), the “cells of type A” value is “about 30%”. Besides, in test [1] (assuming 50% of cells transformed), the “cells of type A obtainable with 1 microgram of ^64Zn sulfate” value came to 23438 cells. The “cells of type A obtainable with 1 microgram of ^64Zn sulfate” value in test [1] (assuming 100% transformation) is 938 cells. In test [2], the “number of E-cadherin-positive cells” value is reported as “significantly increased”; the “slug transcription factor expression” value is “in the cytoplasm and in the nucleus”. The “number of Slug-positive cells” value in test [3] was “insignificantly influenced”. The “tumor proliferation (cell division)” value with COLO 205 cell line was “inhibition of tumor proliferation”. In the test with A-549 cell line, the “restoration of the cell monolayer after 72 hours” value is recorded as “incomplete” and the “time … of the cell monolayer” value was found to be 72 h.
